Measurements taken from BindingDB's records for patent US20250368640 (Biofront, 2025).
pIC50: −log10 of the molar value.

Key:
[1] = target: Mitogen-activated protein kinase kinase kinase kinase 1 (Homo sapiens, UniProt Q92918); test: HPK1 Enzyme Inhibition Assay
Description: The compound was dissolved in 100% DMSO at the concentration of 10 mM. The HPK1 protein was purchased from Signal Chem (M23-11G-10). 2.5 μL per well of 2×HPK1 protein was added to assay plate containing the test compound, centrifuged at 1500 rpm for 1 minute, and then incubated at 25° C. for 60 minutes. MBP protein was purchased from Signal Chem (M42-51N) and ATP was purchased from Promega (V9102). The two were added 2.5 μL per well mixture of 2×MBP (0.2 ug/ul) and ATP (20 μM), centrifuged at 1500 rpm for 1 minute, then incubated at 25° C. for 60 minutes. Then added 5 μL of ADP-Glo from Promega (V9102) to the assay plate and depleted the unconsumed ATP for 60 minutes. Then centrifuged at 1500 rpm for 1 minute and incubated at 25° C. for 60 minutes. Finally, 10 μL of the kinase assay reagent from Promega (V9102) was added to the assay plate to convert ADP to ATP, centrifuged at 1500 rpm for 1 minute, incubate at 25° C. for 40 minutes. After 40 minutes incubation, the […] was determined.

[2] = target: T1, Aurora kinase A (Homo sapiens, UniProt O14965); test: Aurora A Enzyme Inhibition Assay
T1 sequence (O14965 whole entry): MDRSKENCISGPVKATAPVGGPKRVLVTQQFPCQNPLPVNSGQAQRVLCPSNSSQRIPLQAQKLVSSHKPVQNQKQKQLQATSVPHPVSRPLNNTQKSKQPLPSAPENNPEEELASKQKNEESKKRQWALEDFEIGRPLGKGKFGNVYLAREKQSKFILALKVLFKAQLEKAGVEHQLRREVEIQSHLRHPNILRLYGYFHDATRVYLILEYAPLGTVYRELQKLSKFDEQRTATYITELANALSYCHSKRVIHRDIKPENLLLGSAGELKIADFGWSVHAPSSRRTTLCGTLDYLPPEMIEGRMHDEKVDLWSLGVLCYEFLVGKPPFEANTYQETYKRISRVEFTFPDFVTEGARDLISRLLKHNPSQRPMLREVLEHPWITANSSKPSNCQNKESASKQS
Description: The compound was dissolved in 100% DMSO at the concentration of 10 mM. The Aurora A protein was purchased from Carna (05-101). 10 μL per well of 2.5×Aurora A protein was added to assay plate containing the test compound, centrifuged at 1000 rpm for 1 minute, and then incubated at 25° C. for 10 minutes. Peptide 21 was purchased from GL Biochem (116370) and ATP was purchased from Promega (V9102). The two were added 15 μL per well mixture of 1.67× peptide 21 (final conc. is 3 μM) and ATP (final conc. is 14.58 μM), centrifuged at 1000 rpm for 1 minute, then incubated at 25° C. for 40 minutes. Then added 30 μL of stop buffer (100 mM HEPES pH7.5, 0.015% Brij-35, 0.2% Coating Reagent 3, 50 mM EDTA) to the assay plate and centrifuged at 1000 rpm for 1 minute. the product was determined.

Sequence of Mitogen-activated protein kinase kinase kinase kinase 1 (Q92918 whole entry): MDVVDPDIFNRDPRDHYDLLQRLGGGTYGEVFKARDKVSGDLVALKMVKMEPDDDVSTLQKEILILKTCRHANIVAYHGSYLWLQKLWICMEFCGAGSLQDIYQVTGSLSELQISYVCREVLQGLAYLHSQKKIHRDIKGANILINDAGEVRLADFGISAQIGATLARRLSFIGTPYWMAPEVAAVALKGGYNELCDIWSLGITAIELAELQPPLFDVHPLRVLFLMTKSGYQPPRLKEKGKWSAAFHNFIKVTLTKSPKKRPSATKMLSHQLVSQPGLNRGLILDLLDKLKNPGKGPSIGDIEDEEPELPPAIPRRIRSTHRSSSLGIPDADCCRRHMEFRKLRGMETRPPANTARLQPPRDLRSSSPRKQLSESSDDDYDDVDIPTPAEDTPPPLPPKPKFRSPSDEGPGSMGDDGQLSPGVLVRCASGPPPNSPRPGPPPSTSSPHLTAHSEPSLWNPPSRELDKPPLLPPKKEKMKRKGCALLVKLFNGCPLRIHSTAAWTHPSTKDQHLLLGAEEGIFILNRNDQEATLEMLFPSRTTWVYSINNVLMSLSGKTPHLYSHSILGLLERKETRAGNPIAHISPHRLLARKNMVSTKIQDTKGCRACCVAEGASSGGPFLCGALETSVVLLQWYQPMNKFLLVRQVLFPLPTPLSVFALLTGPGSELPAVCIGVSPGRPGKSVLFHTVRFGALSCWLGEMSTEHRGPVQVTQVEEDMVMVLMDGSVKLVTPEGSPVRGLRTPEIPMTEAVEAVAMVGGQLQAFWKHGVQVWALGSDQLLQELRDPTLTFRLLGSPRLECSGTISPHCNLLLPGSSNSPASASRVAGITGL

Row | SMILES | pIC50 [1] | pIC50 [2]
1 | CCc1c[nH]c2ncc(-c3cccc(N4CCCN(CCN5CC(c6ccc7c(c6)CN(C6CCC(=O)NC6=O)C7=O)C5)C4=O)c3)c(Cl)c12 (centres undefined) | 8.96 | 8.00
2 | CCc1c[nH]c2ncc(-c3cccc(N4CCCN(CCN5CC(c6ccc7c(c6)C(=O)N(C6CCC(=O)NC6=O)C7)C5)C4=O)c3)c(Cl)c12 (centres undefined) [US20250368640, Example 1] | 9.12 | 7.84
